Measured values reported in patent publication US20060062758A1, “Tight junction modulator peptide PN159 for enhanced mucosal delivery of therapeutic compounds” (Nastech Pharmaceutical Comapny Inc., priority 2004, published 2006).

Experiments:
[1] = Chemical stability of PN159 in solution (stability indicating HPLC); type: physicochemical; settings: pH 9 and/or elevated temperature, e.g., 40 to 50° C.
Procedure: The chemical stability of the PN159 was determined under therapeutically relevant storage conditions. A stability indicating HPLC method was employed. Solutions (50 mM) were stored at various pH (4.0, 7.3, and 9.0) and temperature (5° C., 25° C., 35° C., 40° C., and 50° C.) conditions. Samples at pH 4 contained 10 mM citrate buffer. Samples at pH 7.3 and 9.0 contained 10 mM phosphate buffer. Representative storage stability data (including the Arrhenius plot) are depicted in FIG. 6. […] For example, at 5° C. and pH 4.0 or pH7.3, there was essentially 100% recovery of PN159 for six month storage. […] The pH range of 4.0 to 7.3 and the temperature range of refrigerated to ambient are most relevant for intranasal formulations.

[2] = Intranasal PYY plasma pharmacokinetics in rabbits; type: in vivo, New Zealand White rabbits; settings: for plasma concentration of PYY: average of 4 animals; for Relative AUC last / Relative Cmax / AUCINF, Mean / AUClast, Mean: plasma PYY; for Relative AUC last / Relative Cmax: compared with Group 2 (no enhancer) formulation
Procedure: 20 male New Zealand White rabbits age 3-6 months and weighing 2.1-3.0 kg were randomly assigned into one of 5 treatment groups with four animals per group. Test animals were dosed at 15 μl/kg and intranasally via pipette. Table 4 below indicates the composition of five different dose groups.
For dosing group 1 (see Table 1) a clinical formulation of PYY including small molecule permeation enhancers was used. The small molecule enhancers in these studies included methyl-βcyclodextrin, phosphatidylcholine didecanoyl (DDPC), and/or EDTA. Dosing group 2 received PYY dissolved in phosphate buffered saline (PBS).
Serial blood samples (about 2 ml each) were collected by direct venipuncture from a marginal ear vein into blood collection tubes containing EDTA as an anticoagulant. Blood samples were collected at 0, 2.5, 5, 10, 15, 30, 45, 60, and 120 minutes post-dosing. After collection of the blood, the tubes were gently rocked several times for anti-coagulation, and then 50 μl aprotinin solution was added. The blood was centrifuged at approximately 1,600×g for 15 minutes at approximately 4° C., and plasma samples were dispensed into duplicate aliquots and stored frozen at approximately −70° C.

[3] = test system: EpiAirway™ Cell Membrane (mucosal epithelial cell layer); experiment: Transepithelial electrical resistance (TER), EpiAirway in vitro epithelial tissue model; type: cell-based
[4] = intranasal PYY 205 μg/kg in PBS with 25 μM PN159 (Group 3)
[5] = intranasal PYY 205 μg/kg in PBS with 50 μM PN159 (Group 4)
[6] = intranasal PYY 205 μg/kg in PBS with 100 μM PN159 (Group 5)

## CC(C)C[C@H](NC(=O)[C@H](C)NC(=O)[C@H](CCCCN)NC(=O)[C@H](CC(C)C)NC(=O)[C@H](C)NC(=O)[C@H](CC(C)C)NC(=O)[C@H](CCCCN)NC(=O)[C@H](CC(C)C)NC(=O)[C@H](C)NC(=O)[C@H](CC(C)C)NC(=O)[C@@H](N)CCCCN)C(=O)N[C@@H](CCCCN)C(=O)N[C@@H](C)C(=O)N[C@@H](C)C(=O)N[C@@H](CC(C)C)C(=O)N[C@@H](CCCCN)C(=O)N[C@@H](CC(C)C)C(=O)N[C@@H](C)C(N)=O [PN159]
[1]
  chemical stability (in words): rapid deterioration
[2]; 0 min post-dosing, intranasal PYY 205 μg/kg in PBS with 25 μM PN159
  plasma concentration of PYY: 228.675
[2]; 0 min post-dosing, intranasal PYY 205 μg/kg in PBS with 50 μM PN159
  plasma concentration of PYY: 424.4
[2]; 0 min post-dosing, intranasal PYY 205 μg/kg in PBS with 100 μM PN159
  plasma concentration of PYY: 294.225
[2]; 2.5 min post-dosing, intranasal PYY 205 μg/kg in PBS with 25 μM PN159
  plasma concentration of PYY: 526.375
[2]; 2.5 min post-dosing, intranasal PYY 205 μg/kg in PBS with 50 μM PN159
  plasma concentration of PYY: 749.975
[2]; 2.5 min post-dosing, intranasal PYY 205 μg/kg in PBS with 100 μM PN159
  plasma concentration of PYY: 1748.225
[2]; 5 min post-dosing, intranasal PYY 205 μg/kg in PBS with 25 μM PN159
  plasma concentration of PYY: 1430.15
[2]; 5 min post-dosing, intranasal PYY 205 μg/kg in PBS with 50 μM PN159
  plasma concentration of PYY: 1293.4
[2]; 5 min post-dosing, intranasal PYY 205 μg/kg in PBS with 100 μM PN159
  plasma concentration of PYY: 3088.2
[2]; 10 min post-dosing, intranasal PYY 205 μg/kg in PBS with 25 μM PN159
  plasma concentration of PYY: 6521.7
[2]; 10 min post-dosing, intranasal PYY 205 μg/kg in PBS with 50 μM PN159
  plasma concentration of PYY: 12517.2
[2]; 10 min post-dosing, intranasal PYY 205 μg/kg in PBS with 100 μM PN159
  plasma concentration of PYY: 14486.6
[2]; 15 min post-dosing, intranasal PYY 205 μg/kg in PBS with 25 μM PN159
  plasma concentration of PYY: 12563.075
[2]; 15 min post-dosing, intranasal PYY 205 μg/kg in PBS with 50 μM PN159
  plasma concentration of PYY: 34455.3
[2]; 15 min post-dosing, intranasal PYY 205 μg/kg in PBS with 100 μM PN159
  plasma concentration of PYY: 20882.725
[2]; 30 min post-dosing, intranasal PYY 205 μg/kg in PBS with 25 μM PN159
  plasma concentration of PYY: 15222.6
[2]; 30 min post-dosing, intranasal PYY 205 μg/kg in PBS with 50 μM PN159
  plasma concentration of PYY: 35294.375
[2]; 30 min post-dosing, intranasal PYY 205 μg/kg in PBS with 100 μM PN159
  plasma concentration of PYY: 25470.475
[2]; 45 min post-dosing, intranasal PYY 205 μg/kg in PBS with 25 μM PN159
  plasma concentration of PYY: 9081.125
[2]; 45 min post-dosing, intranasal PYY 205 μg/kg in PBS with 50 μM PN159
  plasma concentration of PYY: 21582.225
[2]; 45 min post-dosing, intranasal PYY 205 μg/kg in PBS with 100 μM PN159
  plasma concentration of PYY: 16499.55
[2]; 60 min post-dosing, intranasal PYY 205 μg/kg in PBS with 25 μM PN159
  plasma concentration of PYY: 4843.15
[2]; 60 min post-dosing, intranasal PYY 205 μg/kg in PBS with 50 μM PN159
  plasma concentration of PYY: 9461.925
[2]; 60 min post-dosing, intranasal PYY 205 μg/kg in PBS with 100 μM PN159
  plasma concentration of PYY: 10676.625
[2]; 120 min post-dosing, intranasal PYY 205 μg/kg in PBS with 25 μM PN159
  plasma concentration of PYY: 1224.2
[2]; 120 min post-dosing, intranasal PYY 205 μg/kg in PBS with 50 μM PN159
  plasma concentration of PYY: 2337.775
[2]; 120 min post-dosing, intranasal PYY 205 μg/kg in PBS with 100 μM PN159
  plasma concentration of PYY: 1891.275
[2]; PN159, 25 μm (Group 3)
  Relative AUC last: 21x
  Relative Cmax: 30x
[2]; PN159, 50 μm (Group 4)
  Relative AUC last: 46x
  Relative Cmax: 79x
[2]; PN159, 100 μm (Group 5)
  Relative AUC last: 38x
  Relative Cmax: 54x
[2]; [4]
  AUCINF, Mean: 796354.7 pg·min/mL
  AUClast, Mean: 748104.1 pg·min/mL
[2]; [5]
  AUCINF, Mean: 1787348 pg·min/mL
  AUClast, Mean: 1692499 pg·min/mL
[2]; [6]
  AUCINF, Mean: 1518949 pg·min/mL
  AUClast, Mean: 1384241 pg·min/mL
[3]; PN159 25, 50, 100 μM in the presence of 40 mg/ml galantamine lactate, pH 5.0
  TER (in words): reduced TER
[3]; PN159 25, 50, 100 μM with 2 mg/ml PTH, pH 4.5
  TER reduction: more than 80%
